The results in this text go back to patent US20070128217A1 (priority 2003, published 2007).

The subject of experiment [1] is antibodies in sera from SARS patients (sera 1a, 1b, 2, 6, 37, 62, London, SARS-yellow, SARS-green). Type of experiment: binding, human. On the set-up: Binding of serum 6 to linear peptides of protein X1 of SARS-CoV Urbani / Binding of serum 37 to linear peptides of protein X1 of SARS-CoV Urbani / Binding of serum 6 to looped/cyclic peptide (PEPSCAN-ELISA) / Binding of serum 37 to looped/cyclic peptide (PEPSCAN-ELISA) / Binding of serum 37 to looped/cyclic peptides of protein X1 of SARS-CoV Urbani / Binding of serum 6 to linear peptides of protein X2 / Binding of serum 37 to linear peptides of protein X2 / Binding of serum 37 to looped/cyclic peptides of protein X2 of SARS-CoV Urbani / Binding of serum 6 to linear peptides of protein M of SARS-CoV Urbani / Binding of serum 37 to linear peptides of protein M of SARS-CoV Urbani / Binding of serum 6 to looped/cyclic peptides of protein M of SARS-CoV Urbani / Binding of serum 37 to looped/cyclic peptides of protein M of SARS-CoV Urbani / Binding of serum 6 to linear peptides of protein X3 of SARS-CoV Urbani / Binding of serum 37 to linear peptides of protein X3 of SARS-CoV Urbani / Binding of serum 37 to looped/cyclic peptides of protein X3 of SARS-CoV Urbani / Binding of serum 6 to linear peptides of protein X4 of SARS-CoV Urbani / Binding of serum 37 to linear peptides of protein X4 of SARS-CoV Urbani / Binding of serum 37 to looped/cyclic peptides of protein X4 of SARS-CoV Urbani / Binding of serum 6 to linear peptides of protein X5 of SARS-CoV Urbani / Binding of serum 37 to linear peptides of protein X5 of SARS-CoV Urbani / Binding of serum 37 to looped/cyclic peptides of protein X5 of SARS-CoV Urbani / Binding of serum 6 to linear peptides of protein N of SARS-CoV Urbani / Binding of serum 37 to linear peptides of protein N of SARS-CoV Urbani / Binding of serum 6 to linear peptide (PEPSCAN-ELISA) / Binding of serum 1a to looped/cyclic peptides of protein N of SARS-CoV Urbani / Binding of serum 1b to looped/cyclic peptides of protein N of SARS-CoV Urbani / Binding of serum 2 to looped/cyclic peptides of protein N of SARS-CoV Urbani / Binding of serum 6 to looped/cyclic peptides of protein N of SARS-CoV Urbani / Binding of serum 37 to looped/cyclic peptides of protein N of SARS-CoV Urbani / Binding of serum 62 to looped/cyclic peptides of protein N of SARS-CoV Urbani / Binding of serum London to looped/cyclic peptides of protein N of SARS-CoV Urbani / Binding of serum SARS-green to looped/cyclic peptides of protein N of SARS-CoV Urbani: unit not given here.

Experiment [2] deals with control sera (pooled serum of ten healthy LUMC hospital workers; commercial negative donor pooled serum from the Dutch bloodbank). Format: binding, human. Also noted: Binding of Control serum LUMC to linear peptides / Binding of Control serum Blood-bank to linear peptides / Binding of Control serum LUMC to looped peptides / Binding of Control Serum Blood-Bank to Looped peptides / Binding of Control serum LUMC to linear peptides of the protein M of SARS-CoV Urbani / Binding of Control serum Blood-bank to linear peptides of the protein M of SARS-CoV Urbani / Binding of Control serum LUMC to looped peptides of the protein M of SARS-CoV Urbani / Binding of Control Serum Blood-Bank to Looped peptides of the protein M of SARS-CoV Urbani: unit not given here.

Experiment [3] has as its system rabbit serum obtained by immunizing a rabbit with the SARS-CoV strain Frankfurt 1. Format: binding. On the set-up: Binding of a rabbit serum to linear peptides / Binding of a rabbit serum to looped peptides / Rabbit serum linear peptides / Rabbit serum looped peptides / Binding of a rabbit serum to linear peptides of protein N of SARS-CoV Urbani (Rabbit serum linear peptides) / Binding of a rabbit serum to looped/cyclic peptides of protein N of SARS-CoV Urbani (Rabbit serum looped peptides): unit not given here.

For the sequence RMCKYTQSTALQELL, in experiment [1], the “Binding of serum 1a to linear peptides of protein X2” value is listed as 0.8, the “Binding of serum 1a to looped/cyclic peptides of protein X2 of SARS-CoV Urbani” value worked out at 0.7, the “Binding of serum 1b to linear peptides of protein X2” value is given as 0.7 and the “Binding of serum 1b to looped/cyclic peptides of protein X2 of SARS-CoV Urbani” value was 0.7. Besides, in experiment [1], the “Binding of serum 2 to linear peptides of protein X2” value is given as 0.5, the “Binding of serum 2 to looped/cyclic peptides of protein X2 of SARS-CoV Urbani” value is listed as 0.4, the “Binding of serum 6 to linear peptides of protein X2” value is listed as 0.4 and the “Binding of serum 6 to looped/cyclic peptides of protein X2 of SARS-CoV Urbani” value is listed as 0.3. In experiment [1], the “Binding of serum 37 to linear peptides of protein X2” value was 0.7, the “Binding of serum 37 to looped/cyclic peptides of protein X2 of SARS-CoV Urbani” value is 0.4, the “Binding of serum 62 to linear peptides of protein X2” value came to 0.8 and the “Binding of serum 62 to looped/cyclic peptides of protein X2 of SARS-CoV Urbani” value came to 0.7. In experiment [1], the “Binding of serum London to linear peptides of protein X2” value came out at 0.5, the “Binding of serum London to looped/cyclic peptides of protein X2 of SARS-CoV Urbani” value turned out to be 0.2, the “Binding of serum SARS-green to linear peptides of protein X2” value was found to be 0.6 and the “Binding of serum SARS-green to looped/cyclic peptides of protein X2 of SARS-CoV Urbani” value was 0.6. Further, in experiment [1], the “Binding of serum SARS-yellow to linear peptides of protein X2” value worked out at 0.6 and the “Binding of serum SARS-yellow to looped/cyclic peptides of protein X2 of SARS-CoV Urbani” value is 0.3. For the same sequence, in experiment [2], the “Binding of Control Serum Blood-Bank to Looped peptides” value is 0.7, the “Binding of Control serum Blood-bank to linear peptides” value is listed as 0.8, the “Binding of Control serum LUMC to linear peptides” value was 0.7 and the “Binding of Control serum LUMC to looped peptides” value was 0.6. Moreover, in experiment [3], the “Binding of a rabbit serum to linear peptides” value was 0.4 and the “Binding of a rabbit serum to looped peptides” value was 0.4.
Turning to RPLMESELVIGAVII, in experiment [1], the “Binding of serum 1a to linear peptides of protein M of SARS-CoV Urbani” value worked out at 0.8, the “Binding of serum 1b to linear peptides of protein M of SARS-CoV Urbani” value is on record as 0.6, the “Binding of serum 2 to linear peptides of protein M of SARS-CoV Urbani” value is recorded as 0.7 and the “Binding of serum 6 to linear peptides of protein M of SARS-CoV Urbani” value stood at 0.3. For the same sequence, in experiment [1], the “Binding of serum 37 to linear peptides of protein M of SARS-CoV Urbani” value stood at 0.6, the “Binding of serum 62 to linear peptides of protein M of SARS-CoV Urbani” value is on record as 0.9, the “Binding of serum London to linear peptides of protein M of SARS-CoV Urbani” value is given as 0.4 and the “Binding of serum SARS-green to linear peptides of protein M of SARS-CoV Urbani” value came out at 0.3. In experiment [1], the “Binding of serum SARS-yellow to linear peptides of protein M of SARS-CoV Urbani” value is listed as 0.1; the “Recognition of the peptide by sera of SARS-CoV infected individuals, and form (linear, looped/cyclic) in which it is recognized” value is “recognized in looped/cyclic form”. Further, in experiment [2], the “Binding of Control Serum Blood-Bank to Looped peptides of the protein M of SARS-CoV Urbani” value was 0.8, the “Binding of Control serum Blood-bank to linear peptides of the protein M of SARS-CoV Urbani” value was determined as 0.6, the “Binding of Control serum LUMC to linear peptides of the protein M of SARS-CoV Urbani” value is reported as 0.5 and the “Binding of Control serum LUMC to looped peptides of the protein M of SARS-CoV Urbani” value is reported as 0.8. Also, in experiment [3], the “Rabbit serum linear peptides” value amounted to 0.4 and the “Rabbit serum looped peptides” value was 0.2.
On to RQEEVQQELYSPLFL, for which, in experiment [1], the “Binding of serum 1a to linear peptides of protein X4 of SARS-CoV Urbani” value turned out to be 0.8, the “Binding of serum 1b to linear peptides of protein X4 of SARS-CoV Urbani” value stood at 0.6, the “Binding of serum 2 to linear peptides of protein X4 of SARS-CoV Urbani” value is listed as 0.5 and the “Binding of serum 6 to linear peptides of protein X4 of SARS-CoV Urbani” value was determined as 0.5. In experiment [1], the “Binding of serum 37 to linear peptides of protein X4 of SARS-CoV Urbani” value came to 0.8, the “Binding of serum 62 to linear peptides of protein X4 of SARS-CoV Urbani” value was 0.8, the “Binding of serum London to linear peptides of protein X4 of SARS-CoV Urbani” value was 0.7 and the “Binding of serum SARS-green to linear peptides of protein X4 of SARS-CoV Urbani” value turned out to be 0.7. In addition, in experiment [1], the “Binding of serum SARS-yellow to linear peptides of protein X4 of SARS-CoV Urbani” value is reported as 0.7; the “Recognition of the peptide by sera of SARS-CoV infected individuals, and form (linear, looped/cyclic) in which it is recognized” value is on record as “recognized in looped/cyclic form”. In addition, in experiment [2], the “Binding of Control Serum Blood-Bank to Looped peptides” value is 0.8, the “Binding of Control serum Blood-bank to linear peptides” value came to 0.7, the “Binding of Control serum LUMC to linear peptides” value was 0.6 and the “Binding of Control serum LUMC to looped peptides” value is 0.9. For the same sequence, in experiment [3], the “Rabbit serum linear peptides” value was 0.5 and the “Rabbit serum looped peptides” value stood at 0.6.
